Source: article PMC7915724 (2021)

Columns and labels:
Assay in all cases: SPR
[1] = tested on: biotin-Py24 (VEGF i-motif) (DNA, i motif) GACCCCGCCCCCGGCCCGCCCCGG; details: 100 mM KCl; 20 mM MES pH 5.5, 0.05% Tween-20, 25 °C; tested up to 50 μM
[2] = tested on: biotin-Pu24 (VEGF G-quadruplex) (DNA, G4) CCGGGGCGGGCCGGGGGCGGGGTC; details: 100 mM KCl; 20 mM Tris-HCl pH 7.4, 25 °C; tested up to 50 μM
[3] = tested on: biotin-Hairpin (duplex DNA) (DNA, hairpin, HEG (hexaethylene glycol) linker between 10 and 11) TATAGCTATATATAGCTATA; details: 100 mM KCl; 20 mM Tris-HCl pH 7.4, 25 °C; tested up to 50 μM

## CC(=O)OC[C@H]1O[C@@H](n2cc(CNC(=O)[C@]34CCC(C)(C)C[C@H]3C3=CC[C@@H]5[C@@]6(C)CC[C@H](O)C(C)(C)[C@@H]6CC[C@@]5(C)[C@]3(C)CC4)nn2)[C@H](OC(C)=O)[C@@H](OC(C)=O)[C@@H]1OC(C)=O
[1]
  KD: > 50 µM

## CC1(C)CC[C@]2(C(=O)N3CCN(c4ccccn4)CC3)CC[C@]3(C)C(=CC[C@@H]4[C@@]5(C)CC[C@H](O)C(C)(C)[C@@H]5CC[C@]43C)[C@@H]2C1
[1]
  KD: > 50 µM
[2]
  KD: > 50 µM
[3]
  KD: > 50 µM

## CC1(C)CC[C@]2(C(=O)N3CCN(c4ncccn4)CC3)CC[C@]3(C)C(=CC[C@@H]4[C@@]5(C)CC[C@H](O)C(C)(C)[C@@H]5CC[C@]43C)[C@@H]2C1
[1]
  KD: > 50 µM
[2]
  KD: > 50 µM
[3]
  KD: > 50 µM

## CC1(C)CC[C@]2(C(=O)NCCNC(=O)c3ccccc3Nc3ccccc3)CC[C@]3(C)C(=CC[C@@H]4[C@@]5(C)CC[C@H](O)C(C)(C)[C@@H]5CC[C@]43C)[C@@H]2C1
[1]
  KD: > 50 µM
[2]
  KD: > 50 µM
[3]
  KD: > 50 µM

## CC1(C)CC[C@]2(C(=O)NCc3cn(CCCN4CCCC4)nn3)CC[C@]3(C)C(=CC[C@@H]4[C@@]5(C)CC[C@H](O)C(C)(C)[C@@H]5CC[C@]43C)[C@@H]2C1
[1]
  KD: > 50 µM

## CC1(C)CC[C@]2(C(=O)NCc3cn(CCCN4CCOCC4)nn3)CC[C@]3(C)C(=CC[C@@H]4[C@@]5(C)CC[C@H](O)C(C)(C)[C@@H]5CC[C@]43C)[C@@H]2C1
[1]
  KD: > 50 µM

## CC1(C)CC[C@]2(C(=O)NCc3cn(CCN4CCCC4)nn3)CC[C@]3(C)C(=CC[C@@H]4[C@@]5(C)CC[C@H](O)C(C)(C)[C@@H]5CC[C@]43C)[C@@H]2C1
[1]
  KD: > 50 µM

## CC1(C)CC[C@]2(C(=O)NCc3cn(CCN4CCOCC4)nn3)CC[C@]3(C)C(=CC[C@@H]4[C@@]5(C)CC[C@H](O)C(C)(C)[C@@H]5CC[C@]43C)[C@@H]2C1
[1]
  KD: > 50 µM

## CC1(C)CC[C@]2(C(=O)NCc3cn(Cc4ccc(C(F)(F)F)cc4)nn3)CC[C@]3(C)C(=CC[C@@H]4[C@@]5(C)CC[C@H](O)C(C)(C)[C@@H]5CC[C@]43C)[C@@H]2C1
[1]
  KD: > 50 µM

## CN(C)CCn1cc(CNC(=O)[C@]23CCC(C)(C)C[C@H]2C2=CC[C@@H]4[C@@]5(C)CC[C@H](O)C(C)(C)[C@@H]5CC[C@@]4(C)[C@]2(C)CC3)nn1
[1]
  KD: > 50 µM
[2]
  KD: > 50 µM

## COC(=O)[C@]12CCC(C)(C)C[C@H]1C1=CC[C@@H]3[C@@]4(C)C=C(C(=O)NCCCN5CCCC5)C(=O)C(C)(C)[C@@H]4CC[C@@]3(C)[C@]1(C)CC2
[1]
  KD: > 50 µM

## COC(=O)[C@]12CCC(C)(C)C[C@H]1C1=CC[C@@H]3[C@@]4(C)C=C(C(=O)NCCCc5ccccc5)C(=O)C(C)(C)[C@@H]4CC[C@@]3(C)[C@]1(C)CC2
[1]
  KD: > 50 µM

## COC(=O)[C@]12CCC(C)(C)C[C@H]1C1=CC[C@@H]3[C@@]4(C)C=C(C(=O)NCCc5ccc(C(F)(F)F)cc5)C(=O)C(C)(C)[C@@H]4CC[C@@]3(C)[C@]1(C)CC2
[1]
  KD: > 50 µM

## COC(=O)[C@]12CCC(C)(C)C[C@H]1[C@H]1C(=O)C[C@@H]3[C@@](C)(CCC(=O)N4CCN(c5ccc(F)cc5F)CC4)[C@H](C(C)(C)O)CC[C@@]3(C)[C@]1(C)CC2
[1]
  KD: > 50 µM

## COC(=O)[C@]12CCC(C)(C)C[C@H]1[C@H]1C(=O)C[C@@H]3[C@@](C)(CCC(=O)NCCc4cccs4)[C@H](C(C)(C)O)CC[C@@]3(C)[C@]1(C)CC2
[1]
  KD: > 50 µM

## COC(=O)[C@]12CCC(C)(C)C[C@H]1[C@H]1C(=O)C[C@@H]3[C@@](C)(CCC(=O)Nc4ccc(F)cc4)[C@H](C(C)(C)O)CC[C@@]3(C)[C@]1(C)CC2
[1]
  KD: > 50 µM

## COC(=O)[C@]12CCC(C)(C)C[C@H]1[C@H]1C(=O)C[C@@H]3[C@@](C)(CCC(=O)Nc4ccc(OC(F)(F)F)cc4)[C@H](C(C)(C)O)CC[C@@]3(C)[C@]1(C)CC2
[1]
  KD: > 50 µM

## COC(=O)[C@]12CCC(C)(C)C[C@H]1[C@H]1C(=O)C[C@@H]3[C@@](C)(CCC(=O)Nc4ccc(OC)cc4)[C@H](C(C)(C)O)CC[C@@]3(C)[C@]1(C)CC2
[1]
  KD: > 50 µM
